# Assay results reported in patent publication US6395684B1, “Selective herbicides based on a substituted phenyl sulfonyl amino carbonyl triazolinone” (Bayer Aktiengesellschaft, priority 1998, dated 2002).
# Where a name gives a salt, the structure may show the parent alone.
# What was measured:
# Type in all cases: in vivo
# Alopecurus = experiment: Post-emergence test/greenhouse; details: 60 g ai./ha, greenhouse, after three weeks
# Procedure: (§1) Post-emergence Test/greenhouse Solvent: 5 parts by weight of acetone Emulsifier: 1 part by weight of alkylaryl polyglycol ether To produce a suitable preparation of active compound, 1 part by weight of active compound is mixed with the stated amount of solvent, the stated amount of emulsifier is added and the concentrate is diluted with water to the desired concentration. Test plants which have a height of 5-15 cm are sprayed with the preparation of active compound such that the particular amounts of active compound desired are applied per unit area. The concentration of the spray liquor is chosen so that the particular amounts of active compound desired are applied in 500 l of water/ha. After three weeks, the degree of damage to the plants is assessed in % damage in comparison to the development of the untreated control. The figures denote: 0%=no effect (like untreated control) 100% total destruction
# Lolium = experiment: Post-emergence test/greenhouse; details: 60 g ai./ha, greenhouse, after three weeks
# Procedure: as §1
# Avena = experiment: Post-emergence test/greenhouse; details: 60 g ai./ha, greenhouse, after three weeks
# Procedure: as §1
# Agropyron = experiment: Post-emergence test/greenhouse; details: 60 g ai./ha, greenhouse, after three weeks
# Procedure: as §1
# Bromus = experiment: Post-emergence test/greenhouse; details: 60 g ai./ha, greenhouse, after three weeks
# Procedure: as §1
# Wheat = experiment: Post-emergence test/greenhouse; details: greenhouse
# Procedure: as §1
# Bromus tectorum = experiment: Post-emergence tests/outdoors (Example D, USA); details: 42 g a.i./ha to 45 g a.i./ha, post-emergence (autumn), outdoors, winter wheat, with surface-active substances (SAS), 37 tests
# Procedure: (§2) The active compound was applied by the post-emergence method (spring) across the area by the spray method, with an average droplet size. To produce a useful preparation of active compound, the active compound was formulated as 70 WP or 70 WG (70% w/w water-dispersible powder or granules) and applied with customary amounts of water. To assess the crop compatibility, from 1 to 8 weeks after the treatment, plant growth inhibitions or […] of the leaf area were assessed in % damage in comparison to the development of the untreated control. At different intervals after the treatment, the herbicidal activity was assessed as % reduction in comparison to the untreated control, based on the weed development. The figures denote: 0%=no damage of the crops or no herbicidal effect, 100%=total destruction of the crops or the weeds. Post-emergence Tests/outdoors The sodium salt of the compound of the formula (I) was tested under outdoor conditions in the main cultivation areas of winter wheat in the USA (Pacific Northwest, North Central Area, Central Plains) against economically important weeds. The design, the practice and the evaluation of the experiments corresponded to Example C. The active compound was applied in autumn. Wetting of the plants was improved by addition of commercial surface-active substances (SAS) in the concentrations recommended by the respective manufacturer.
# Bromus secalinus = experiment: Post-emergence tests/outdoors (Example D, USA); details: 42 g a.i./ha to 45 g a.i./ha, post-emergence (autumn), outdoors, winter wheat, with surface-active substances (SAS), 24 tests
# Procedure: as §2
# Thlaspi arvense = experiment: Post-emergence tests/outdoors (Example D, USA); details: 42 g a.i./ha to 45 g a.i./ha, post-emergence (autumn), outdoors, winter wheat, with surface-active substances (SAS), 7 tests
# Procedure: as §2
# Erysimum cheiranthoides = experiment: Post-emergence tests/outdoors (Example D, USA); details: 42 g a.i./ha to 45 g a.i./ha, post-emergence (autumn), outdoors, winter wheat, with surface-active substances (SAS), 10 tests
# Procedure: as §2
# Phalaris paradoxa = experiment: Post-emergence test/outdoors (Example E, California); details: 42 g a.i./ha to 45 g a.i./ha, + SAS, outdoors, irrigation wheat growing area, 8 tests
# Alopecurus myosuroides = experiment: Post emergence tests/outdoors (Example C, Germany and France); details: 42 g of a.i./ha to 45 g of a.i./ha, post-emergence (spring), outdoors, winter wheat, 70 WP or 70 WG, 204 tests
# Procedure: (§3) Post Emergence Tests/outdoors Under outdoor conditions, the sodium salt of the compound of the formula (I) was tested in winter wheat in Germany and France against economically important weeds. The small-plot experiments were carried out on cultivated land under agricultural use, with cultivation and climate conditions which can be considered to be representative for the period of the trial. Areas with particularly extensive weed growth were chosen by way of preference. The active compound was applied by the post-emergence method (spring) across the area by the spray method, with an average droplet size. To produce a useful preparation of active compound, the active compound was formulated as 70 WP or 70 WG (70% w/w water-dispersible powder or granules) and applied with customary amounts of water. To assess the crop compatibility, from 1 to 8 weeks after the treatment, plant growth inhibitions or […] of the leaf area were assessed in % damage in comparison to the development of the untreated control. At different intervals after the treatment, the herbicidal activity was assessed as % reduction in comparison to the untreated control, based on the weed development. The figures denote: 0%=no damage of the crops or no herbicidal effect, 100%=total destruction of the crops or the weeds.
# Sinapis arvensis = experiment: as above; details: 42 g of a.i./ha to 45 g of a.i./ha, post-emergence (spring), outdoors, winter wheat, 70 WP or 70 WG, 4 tests
# Procedure: as §3
# Agropyron repens = experiment: as above; details: 42 g of a.i./ha to 45 g of a.i./ha, post-emergence (spring), outdoors, winter wheat, 70 WP or 70 WG, 83 tests
# Procedure: as §3
# Poa annua = experiment: as above; details: 42 g of a.i./ha to 45 g of a.i./ha, post-emergence (spring), outdoors, winter wheat, 70 WP or 70 WG, 5 tests
# Procedure: as §3
# Capsella bursa-pastoris = experiment: as above; details: 42 g of a.i./ha to 45 g of a.i./ha, post-emergence (spring), outdoors, winter wheat, 70 WP or 70 WG, 6 tests
# Procedure: as §3
# Apera spica-venti = experiment: as above; details: 42 g of a.i./ha to 45 g of a.i./ha, post-emergence (spring), outdoors, winter wheat, 70 WP or 70 WG, 87 tests
# Procedure: as §3
# winter wheat = experiment: Post emergence tests/outdoors (Example C, Germany and France), crop compatibility; details: 42 g of a.i./ha to 45 g of a.i./ha, post-emergence (spring), outdoors, 1 to 8 weeks after the treatment, 439 tests
# Procedure: as §3
smiles,measurement,setting,value
"CCCOc1nn(C(=O)NS(=O)(=O)c2ccccc2C(=O)OC)c(=O)n1C [(I)-Na-salt, 2-(2-methoxycarbonyl-phenylsulphonylaminocarbonyl)-4-methyl-5-propoxy-2,4-dihydro-3H-1,2,4-triazol-3-one]",degree of damage to the plants (% damage in comparison to the untreated control),Alopecurus,90%
same,degree of damage to the plants (% damage in comparison to the untreated control),Lolium,80%
same,degree of damage to the plants (% damage in comparison to the untreated control),Avena,80%
same,degree of damage to the plants (% damage in comparison to the untreated control),Agropyron,100%
same,degree of damage to the plants (% damage in comparison to the untreated control),Bromus,95%
same,degree of damage to the plants (% damage in comparison to the untreated control),"Wheat; Wheat, 60 g ai./ha, after three weeks",0%
same,"compatibility with crop plants (wheat), in words",Wheat; sodium salt of (I) at 60 g/ha,very good compatibility
same,herbicidal effect (%),Bromus tectorum,90%
same,herbicidal effect (%),Bromus secalinus,95%
same,herbicidal effect (%),Thlaspi arvense,100%
same,herbicidal effect (%),Erysimum cheiranthoides,89%
same,herbicidal effect (%),Phalaris paradoxa,99%
same,herbicidal effect (%),Alopecurus myosuroides,91%
same,herbicidal effect (%),Sinapis arvensis,100%
same,herbicidal effect (%),Agropyron repens,89%
same,herbicidal effect (%),Poa annua,67%
same,herbicidal effect (%),Capsella bursa-pastoris,100%
same,herbicidal effect (%),Apera spica-venti,94%
same,Damage to the crop (wheat),winter wheat,2%
